In ChEMBL document CHEMBL5046249, “Synthesis, biological evaluation and cellular localization study of fluorescent derivatives of Jiyuan Oridonin A” (Eur J Med Chem, 2022):

What was measured:
Assay type in all cases: functional, cell-based
MGC-803 = test: Antiproliferative activity against human MGC-803 cells assessed as inhibition of cell growth measured after 72 hrs by SRB assay; conditions: MGC-803, 72 h
SW1990 = test: Antiproliferative activity against human SW1990 cells assessed as inhibition of cell growth measured after 72 hrs by SRB assay; conditions: SW1990, 72 h
PC-3 = test: Antiproliferative activity against human PC-3 cells assessed as inhibition of cell growth measured after 72 hrs by SRB assay; conditions: PC-3, 72 h
TE-1 = test: Antiproliferative activity against human TE-1 cells assessed as inhibition of cell growth measured after 72 hrs by SRB assay; conditions: TE-1, 72 h
HGC-27 = test: Antiproliferative activity against human HGC-27 cells assessed as inhibition of cell growth measured after 72 hrs by SRB assay; conditions: HGC-27, 72 h

Compound | IC50 (MGC-803) [nM] | IC50 (SW1990) [nM] | IC50 (PC-3) [nM] | IC50 (TE-1) [nM] | IC50 (HGC-27) [nM]
C=C1C(=O)[C@]23[C@H](O)[C@H]1C[C@H](O)[C@H]2[C@]12CCCC(C)(C)[C@H]1C[C@H]3O[C@H]2OCCc1cn(CCOCCOCCN2C(=O)c3cccc4c(N5CCCCC5)ccc(c34)C2=O)nn1 | 3310 | 2090 | 970 | 1830 | 3540
C=C1C(=O)[C@]23[C@H](O)[C@H]1C[C@H](O)[C@H]2[C@]12CCCC(C)(C)[C@H]1C[C@H]3O[C@H]2OCCc1cn(CCOCCN2C(=O)c3cccc4c(N5CCCCC5)ccc(c34)C2=O)nn1 | 2130 | 1180 | 990 | 1310 | 4140
C=C1C(=O)[C@]23[C@H](O)[C@H]1C[C@H](O)[C@H]2[C@]12CCCC(C)(C)[C@H]1C[C@H]3O[C@H]2OCCCCc1cn(CCCN2C(=O)c3cccc4c(N5CCCCC5)ccc(c34)C2=O)nn1 | 1200 | 3310 | 770 | 2640 | 6130
C=C1C(=O)[C@]23[C@H](O)[C@H]1C[C@H](O)[C@H]2[C@]12CCCC(C)(C)[C@H]1C[C@H]3O[C@H]2OCCCc1cn(CCOCCOCCOCCN2C(=O)c3cccc4c(N5CCCCC5)ccc(c34)C2=O)nn1 | 2180 | 1640 | 810 | 1440 | 3110
C=C1C(=O)[C@]23[C@H](O)[C@H]1C[C@H](O)[C@H]2[C@]12CCCC(C)(C)[C@H]1C[C@H]3O[C@H]2OCCCc1cn(CCOCCN2C(=O)c3cccc4c(N5CCCCC5)ccc(c34)C2=O)nn1 | 3830 | 2390 | 1410 | 2260 | 2160
C=C1C(=O)[C@]23[C@H](O)[C@H]1C[C@H](O)[C@H]2[C@]12CCCC(C)(C)[C@H]1C[C@H]3O[C@H]2OCCCCCc1cn(CCOCCOCCN2C(=O)c3cccc4c(N5CCCCC5)ccc(c34)C2=O)nn1 | 2640 | 2150 | 1210 | 1860 | 1800
C=C1C(=O)[C@]23[C@H](O)[C@H]1C[C@H](O)[C@H]2[C@]12CCCC(C)(C)[C@H]1C[C@H]3O[C@H]2OCCc1cn(CCCCCCN2C(=O)c3cccc4c(N5CCCCC5)ccc(c34)C2=O)nn1 | 1570 | 1410 | 790 | 4450 | 3090
C=C1C(=O)[C@]23[C@H](O)[C@H]1C[C@H](O)[C@H]2[C@]12CCCC(C)(C)[C@H]1C[C@H]3O[C@H]2OCCCCCCc1cn(CCN2C(=O)c3cccc4c(N5CCCCC5)ccc(c34)C2=O)nn1 | 3250 | 2880 | 1600 | 4660 | 3740
C=C1C(=O)[C@]23[C@H](O)[C@H]1C[C@H](O)[C@H]2[C@]12CCCC(C)(C)[C@H]1C[C@H]3O[C@H]2OCCCc1cn(CCCCCCN2C(=O)c3cccc4c(N5CCCCC5)ccc(c34)C2=O)nn1 | 910 | 1200 | 740 | 2970 | 3320
C=C1C(=O)[C@]23[C@H](O)[C@H]1C[C@H](O)[C@H]2[C@]12CCCC(C)(C)[C@H]1C[C@H]3O[C@H]2OCCc1cn(CCN2C(=O)c3cccc4c(N5CCCCC5)ccc(c34)C2=O)nn1 | 960 | 880 | 2500 | 3340 | 2640
C=C1C(=O)[C@]23[C@H](O)[C@H]1C[C@H](O)[C@H]2[C@]12CCCC(C)(C)[C@H]1C[C@H]3O[C@H]2OCCCc1cn(CCN2C(=O)c3cccc4c(N5CCCCC5)ccc(c34)C2=O)nn1 | 1230 | 1360 | 470 | 4800 | 2970
C=C1C(=O)[C@]23[C@H](O)[C@H]1C[C@H](O)[C@H]2[C@]12CCCC(C)(C)[C@H]1C[C@H]3O[C@H]2OCCc1cn(CCCN2C(=O)c3cccc4c(N5CCCCC5)ccc(c34)C2=O)nn1 | 1970 | 970 | 800 | 3040 | 2290
C=C1C(=O)[C@]23[C@H](O)[C@H]1C[C@H](O)[C@H]2[C@]12CCCC(C)(C)[C@H]1C[C@H]3O[C@H]2OCCCCc1cn(CCCCN2C(=O)c3cccc4c(N5CCCCC5)ccc(c34)C2=O)nn1 | 1690 | 860 | 910 | 3890 | 1820
C=C1C(=O)[C@]23[C@H](O)[C@H]1C[C@H](O)[C@H]2[C@]12CCCC(C)(C)[C@H]1C[C@H]3O[C@H]2OCCCc1cn(CCCN2C(=O)c3cccc4c(N5CCCCC5)ccc(c34)C2=O)nn1 | 1320 | 1130 | 1240 | 3540 | 4110
C=C1C(=O)[C@]23[C@H](O)[C@H]1C[C@H](O)[C@H]2[C@]12CCCC(C)(C)[C@H]1C[C@H]3O[C@H]2OCCCc1cn(CCCCN2C(=O)c3cccc4c(N5CCCCC5)ccc(c34)C2=O)nn1 | 1270 | 870 | 1240 | 2080 | 2240
C=C1C(=O)[C@]23[C@H](O)[C@H]1C[C@H](O)[C@H]2[C@]12CCCC(C)(C)[C@H]1C[C@H]3O[C@H]2OCCCCc1cn(CCOCCOCCN2C(=O)c3cccc4c(N5CCCCC5)ccc(c34)C2=O)nn1 | 2930 | 2160 | 1150 | 2260 | 1750
C=C1C(=O)[C@]23[C@H](O)[C@H]1C[C@H](O)[C@H]2[C@]12CCCC(C)(C)[C@H]1C[C@H]3O[C@H]2OCCCCCCc1cn(CCCCCN2C(=O)c3cccc4c(N5CCCCC5)ccc(c34)C2=O)nn1 | 4180 | 4590 | 3890 | 3450 | 2280
C#CCCO[C@@H]1O[C@@H]2C[C@@H]3C(C)(C)CCC[C@]13[C@@H]1[C@@H](O)C[C@H]3C(=C)C(=O)[C@@]21[C@@H]3O | 6360 | 4230 | 4250 | 7390 | 6480
C#CCCCCCO[C@@H]1O[C@@H]2C[C@@H]3C(C)(C)CCC[C@]13[C@@H]1[C@@H](O)C[C@H]3C(=C)C(=O)[C@@]21[C@@H]3O | 3150 | 2910 | 2450 | 2440 | 2890
C=C1C(=O)[C@]23[C@H](O)[C@H]1C[C@H](O)[C@H]2[C@]12CCCC(C)(C)[C@H]1C[C@H]3O[C@H]2OCCCc1cn(CCOCCOCCN2C(=O)c3cccc4c(N5CCCCC5)ccc(c34)C2=O)nn1 | 3450 | 1940 | 2170 | 3020 | 1250
C=C1C(=O)[C@]23[C@H](O)[C@H]1C[C@H](O)[C@H]2[C@]12CCCC(C)(C)[C@H]1C[C@H]3O[C@H]2OCCCCCc1cn(CCCCN2C(=O)c3cccc4c(N5CCCCC5)ccc(c34)C2=O)nn1 | 2720 | 4650 | 1340 | 5130 | 3010
[N-]=[N+]=NCCCCCCN1C(=O)c2cccc3c(N4CCCCC4)ccc(c23)C1=O | > 32000 | > 32000 | > 32000 | > 32000 | > 32000
C#CCCCCO[C@@H]1O[C@@H]2C[C@@H]3C(C)(C)CCC[C@]13[C@@H]1[C@@H](O)C[C@H]3C(=C)C(=O)[C@@]21[C@@H]3O | 2550 | 3340 | 4320 | 5670 | 3000
C=C1C(=O)[C@]23[C@H](O)[C@H]1C[C@H](O)[C@H]2[C@]12CCCC(C)(C)[C@H]1C[C@H]3O[C@H]2OCCCCCCc1cn(CCCN2C(=O)c3cccc4c(N5CCCCC5)ccc(c34)C2=O)nn1 | 6060 | 3190 | 2380 | 3670 | 2480
C=C1C(=O)[C@]23[C@H](O)[C@H]1C[C@H](O)[C@H]2[C@]12CCCC(C)(C)[C@H]1C[C@H]3O[C@H]2OCCc1cn(CCOCCOCCOCCN2C(=O)c3cccc4c(N5CCCCC5)ccc(c34)C2=O)nn1 | 2650 | 1560 | 930 | 1870 | 5260
C=C1C(=O)[C@]23[C@H](O)[C@H]1C[C@H](O)[C@H]2[C@]12CCCC(C)(C)[C@H]1C[C@H]3O[C@H]2OCCCCCCc1cn(CCOCCN2C(=O)c3cccc4c(N5CCCCC5)ccc(c34)C2=O)nn1 | 1930 | 1780 | 1490 | 1530 | 1170
C=C1C(=O)[C@]23[C@H](O)[C@H]1C[C@H](O)[C@H]2[C@]12CCCC(C)(C)[C@H]1C[C@H]3O[C@H]2OCCCCCc1cn(CCCCCCN2C(=O)c3cccc4c(N5CCCCC5)ccc(c34)C2=O)nn1 | 5880 | 5020 | 990 | 10100 | 2170
C=C1C(=O)[C@]23[C@H](O)[C@H]1C[C@H](O)[C@H]2[C@]12CCCC(C)(C)[C@H]1C[C@H]3O[C@H]2OCCCCCc1cn(CCN2C(=O)c3cccc4c(N5CCCCC5)ccc(c34)C2=O)nn1 | 2720 | 4630 | 2470 | 5360 | 4410
